Experimental data from PMC10447463, “Data-mining unveils structure–property–activity correlation of viral infectivity enhancing self-assembling peptides” (Nature Communications, 2023).

Columns and labels:
[1] = system: HIV-1 infection of TZM-bl cells; assay: HIV-1 infectivity enhancement assay, β-galactosidase luminescence; assay type: cell-based; conditions: for Log10 Infection Rel EF-C: log10 of infection relative to EF-C; for Inf. rel. EF-C: n-fold infection vs virus only, relative to that of EF-C, 1.3 µM peptide; for Abs Infection at 0.26µM: peptide 0.26 µM; for Abs Infection at 0.26µM / Abs Infection at 1.3 µM / Abs Infection at 6.5 µM: mean of n = 3, Figure 7A; for Abs Infection at 1.3 µM: peptide 1.3 µM; for Abs Infection at 6.5 µM: peptide 6.5 µM
[2] = assay type: physicochemical; set-up: key to Fibril / Fibril Formation / TEM 2cat / Fibril: 1 = fibrils present; 0 non-fibrillar structures; conditions: TEM, 1 mg/mL, uranyl acetate stain, qualitative
Experimental: For ATR FT–IR spectroscopy measurements, 200 µL of the respective 1 mg/mL PNF solution was lyophilized and the resulting powder used for measurement. All spectra were recorded on a Bruker Tensor 27 spectrometer with a diamond crystal as ATR element (PIKE MiracleTM, spectral resolution 2 cm^-1). Every sample was measured with 64 scans. Data were analyzed with OriginLab software and calculation of β–sheet content was conducted according to a previous report. TEM. For TEM measurements 5 µL of PNF fibrils (1 mg/mL) were placed on copper grids coated with carbon and formvar layer (300 mesh, Plano GmbH). After 10 min incubation time, the grids were staining with 4% uranyl acetate solution for 2.5 min and washed with water. Measurements were performed on a Jeol 1400 electron microscope with 120 kV acceleration voltage. CR Assay. For the determination of the amount of peptide monomer converting into nanostructures the amine reactive dye fluorescamine was used analogous to a previous reported protocol. Briefly, 100 µL of the preformed PNF solution was centrifuged in a Vivaspin 500 tube (3 kDa MWCO) to separate fibers from free peptide monomer (16200 x g, 4 °C, 45 min). The filtrate and 100 μL of the non-filtered PNF sample were lyophilized and dissolved in 30 μL DMSO. 10 μL of the filtrate and non-filtered DMSO samples were submitted in a black UV Star® 384 microliter well–plates (Greiner bio–one) and 3 μL of the fluorescamine solution (10 mg/mL, DMSO) was added to measure the fluorescence enhancement. After 20 min of incubation at RT, fluorescence was recorded on an Infinite® M1000 PRO microplate reader (Tecan) at λem = 470 nm upon excitation at λex = 365 nm with 10 nm bandwidths and multiple reads per well (3×3). Measurements were repeated in triplicates and averaged with standard deviation. All values were calculated as n-fold fluorescence enhancement (DMSO only as a reference was set to 1). The conversion rate CR was defined according to the equation Eq. (3).3 CR=100−100×fluorescenceintensityfiltrate/fluorescenceintensityoriginal[%]
(§1) 1. Remarks on experimental parameters and bioinformatic descriptors
1.1 Experimental parameters
Transmission electron microscopy (TEM) measurements. TEM measurements were used to control if peptides assemble. The assemblies were categorized in non -fibrillar structures (no assembly, […]
grid but only amorphous aggregates. In contrast, peptides defined as fibrillar may also include amorphous structures. Amongst nonfibrillar assemblies also amorphous aggregates are summarized.
Amorphous aggregates are defined as structures with high β-sheet content which lack long-range order, that is crystallinity or fibril formation. It is generally assumed that these structures might be

[3] = Zeta-potential measurement; assay type: physicochemical; set-up: Zeta-Potential: unit not given here; conditions: for Zeta-Potential / mV: mean
Experimental: (§2) 4 µL of 1 mg/mL peptide fibrils solution is added to a 20 µL, 50 µM ThT–solution in PBS. The mixture is incubated for 15 min at RT to allow binding of ThT dye with β–sheet rich structures. For reference PBS (4 µL) was added instead of peptide fibril solution. The samples were placed in black UV Star® 384 microliter well–plates (Greiner bio–one). Fluorescence spectra were recorded on an Infinite® M1000 PRO microplate reader (Tecan) at λem = 488 nm upon excitation at λex = 440 nm with 10 nm bandwidths and multiple reads per well (3×3). Measurements were repeated in triplicates and averaged with standard deviation. […] Zeta-Potential. For the determination of the surface charge of aggregated peptides zeta-potential measurements were conducted with a Zetasizer Nano ZS, Malvern Instruments. Unless stated otherwise the peptides were dissolved from DMSO (10 mg/mL) in PBS (pH 7.4) to concentration of 1 mg/mL and incubated for 1d at RT. Just before the measurement the 60 µL of the peptides were further diluted in 600 µL KCl (aq, 1 mM) in a 1 mL disposable folded capillary cells (DTS–1060, Zetasizer Nano series, Malvern). The zeta potential of the peptides was derived from the electrophoretic mobility based on the Smoluchowski formula. All measurements were averaged over two individually performed experiments and conducted in triplicates for each sample. Aggregate analysis. […] Furthermore, fluorescence microscopy was conducted by staining 1 µL preformed fibrils (1 mg/mL) with 9 µL ThT (50 µM). Brightfield microscopy was performed simultaneously to evaluate aggregation also for non ThT-active fibrils. The measurements were performed on a Leica DMi8 microscope with 10x air objective and equipped with a Leica MC170 HD camera with a filter setting λem = 527/30 nm upon excitation at λex = 480/40 nm) and processed with the Leica LASX software. To quantify size and number of microscopic aggregation of particles > 10 µm^2 at least 3 independently measured images were analyzed via the 3D object counter analysis tool of ImageJ, v 1.53f51. Sum–frequency generation. The SFG experiments were carried out with a femtosecond Ti: Sapphire amplified laser system (Spitfire Ace, Spectra–Physics, 800 nm, 40 fs, 1 kHz) with 5 W output power. We used 2 W to pump an optical parametric amplifier (TOPAS, light conversion) with a non–collinear difference frequency generation stage to generate broadband IR pulses. Another 1 W of the laser output passed through an etalon to generate narrowband visible pulses (10 cm^-1). The incident angles of the visible and IR beams were 36° and 41° with respect to the surface normal, respectively. The visible (13 µJ) and IR (5 µJ) pulses were overlapped spatially and temporally at the sample position. Subsequently, the generated SFG pulse was guided into a spectrograph (Acton SP 300i, Princeton Instruments), and detected with an EMCCD (Newton, Andor Technology). To avoid IR absorption of water vapor, we purged N2 for the measurement. All spectra were collected in the ssp (denoting s-, s- and p-polarized SFG, visible and IR, respectively) polarization combination. The spectra were normalized to the non–resonant signal taken from z–cut quartz after subtracting a background spectrum. […]

[4] = Turbidity, derived count rate of scattered light; assay type: physicochemical; conditions: for Count Rate / kcps: derived count rate of scattered light at 633 nm, 173°, from zeta-potential measurement, 0.1 mg/mL in 1 mM KCl after 1 d at 1 mg/mL in PBS, turbidity / microscopic aggregation, mean of triplicate; for Count Rate: derived count rate of scattered light
Experimental: as §2
ways to determine turbidity of samples, this can be via transmittance and via scattering. Transmittance […]
as it is an easy and fast method.10,11 However, transmittance contributes not only from µm-sized aggregates but also nm-sized aggregates such as distinct fibrils, which makes hard to distinguish between fibril formation and micrometer sized aggregation. Although dynamic light scattering is a frequently applied method for determination of particle size, it cannot be conducted in solutions with anisotropic aggregates in micrometer size range, since the Stokes-Einstein relation is only applicable for homogeneous […] spherical particles.12 Further models describing scattering intensity and […]

[5] = Turbidity, derived count rate of scattered light; assay type: physicochemical; conditions: log10 of derived count rate of scattered light, Figure 7B
[6] = assay type: physicochemical; conditions: ThT-active if fluorescence at least twice the control
Experimental: 4 µL of 1 mg/mL peptide fibrils solution is added to a 20 µL, 50 µM ThT–solution in PBS. The mixture is incubated for 15 min at RT to allow binding of ThT dye with β–sheet rich structures. For reference PBS (4 µL) was added instead of peptide fibril solution. The samples were placed in black UV Star® 384 microliter well–plates (Greiner bio–one). Fluorescence spectra were recorded on an Infinite® M1000 PRO microplate reader (Tecan) at λem = 488 nm upon excitation at λex = 440 nm with 10 nm bandwidths and multiple reads per well (3×3). Measurements were repeated in triplicates and averaged with standard deviation. […] Zeta-Potential. For the determination of the surface charge of aggregated peptides zeta-potential measurements were conducted with a Zetasizer Nano ZS, Malvern Instruments. Unless stated otherwise the peptides were dissolved from DMSO (10 mg/mL) in PBS (pH 7.4) to concentration of 1 mg/mL and incubated for 1d at RT. Just before the measurement the 60 µL of the peptides were further diluted in 600 µL KCl (aq, 1 mM) in a 1 mL disposable folded capillary cells (DTS–1060, Zetasizer Nano series, Malvern). The zeta potential of the peptides was derived from the electrophoretic mobility based on the Smoluchowski formula. All measurements were averaged over two individually performed experiments and conducted in triplicates for each sample. Aggregate analysis. […] Furthermore, fluorescence microscopy was conducted by staining 1 µL preformed fibrils (1 mg/mL) with 9 µL ThT (50 µM). Brightfield microscopy was performed simultaneously to evaluate aggregation also for non ThT-active fibrils. The measurements were performed on a Leica DMi8 microscope with 10x air objective and equipped with a Leica MC170 HD camera with a filter setting λem = 527/30 nm upon excitation at λex = 480/40 nm) and processed with the Leica LASX software. To quantify size and number of microscopic aggregation of particles > 10 µm^2 at least 3 independently measured images were analyzed via the 3D object counter analysis tool of ImageJ, v 1.53f51. Sum–frequency generation. The SFG experiments were carried out with a femtosecond Ti: Sapphire amplified laser system (Spitfire Ace, Spectra–Physics, 800 nm, 40 fs, 1 kHz) with 5 W output power. We used 2 W to pump an optical parametric amplifier (TOPAS, light conversion) with a non–collinear difference frequency generation stage to generate broadband IR pulses. Another 1 W of the laser output passed through an etalon to generate narrowband visible pulses (10 cm^-1). The incident angles of the visible and IR beams were 36° and 41° with respect to the surface normal, respectively. The visible (13 µJ) and IR (5 µJ) pulses were overlapped spatially and temporally at the sample position. Subsequently, the generated SFG pulse was guided into a spectrograph (Acton SP 300i, Princeton Instruments), and detected with an EMCCD (Newton, Andor Technology). To avoid IR absorption of water vapor, we purged N2 for the measurement. All spectra were collected in the ssp (denoting s-, s- and p-polarized SFG, visible and IR, respectively) polarization combination. The spectra were normalized to the non–resonant signal taken from z–cut quartz after subtracting a background spectrum.
as §1

TZM-bl cells = assay type: cell-based; conditions: CellTiter-Glo, mean of n = 3 replicates
Experimental: The cell viability after addition of peptides to TZM–bl cells was studied via the CellTiter–Glo assay. To this end, 10,000 cells were seeded and on the next day serial diluted peptides were added. After 3 days the supernatant was removed and 100 µL CellTiter–Glo Reagent 1:1 diluted in PBS was added. After 10 min 50 µL was transferred to white microplate and luminescence was recorded by Orion microplate luminometer.
2. Cell Viability of Representatively Selected Peptides
Figure S 2 Cell Viability normalized to 100% metabolic activity as determined by CellTiterGlo Assay of 57 representatively selected peptides from the library. The selection represents infectivity enhancing and not […]
concentration. Error bars indicate standard deviation from triplicate measurements. Source data for Figure S2 […]
Figure S3 Cell Viability normalized to 100% metabolic activity determined by CellTiterGlo Assay of 20 peptides reported in literature. 33,34,43–48,35–42 Cell viability (> 80%) is maintained for all peptides at 1.3 µM concentration regardless of the preparation method, which is A PNF formation method by dilution of 10 mg/mL peptide stock in DMSO in PBS to 1 mg/mL or B preparation according to literature reported protocol (SI Section 8). Error bars indicate standard deviation from triplicate measurements. Source data for Figure S3 is provided.

ISKLEYSNFSVRY [reference compound]
Log10 Infection Rel EF-C ([1]; Figure 7B): -0.26 | Inf. rel. EF-C [1]: 0.54 | Abs Infection at 0.26µM [1]: 23820 | Abs Infection at 1.3 µM [1]: 58613.33333 | Abs Infection at 6.5 µM [1]: 157450 | Fibril / Fibril Formation [2]: 1 | Zeta pot. / mV ([3]; 1 mg/mL in PBS pH 7.4 from 10 mg/mL DMSO stock, 1 d RT, 60 µL diluted in 600 µL 1 mM KCl, Zetasizer Nano ZS, Smoluchowski, mean of triplicate): 9.3 mV | Zeta-Potential / mV ([3]; Figure 7B): 9.33 mV | Count Rate / kcps [4]: 7807 kcps | Log10 Count Rate [5]: 3.893

LANWMCLAKW [reference compound]
Log10 Infection Rel EF-C ([1]; Figure 7B): -0.4 | Inf. rel. EF-C [1]: 0.40 | Abs Infection at 0.26µM [1]: 44873.33333 | Abs Infection at 1.3 µM [1]: 80126.66667 | Abs Infection at 6.5 µM [1]: 133423.3333 | ThT Cat. / ThT-Fluorescence (categorical) [6]: 1 (ThT. Cat is 1, if Rel. ThT >2) | Zeta Potential ([3]; mean of n = 3): 14.73 | Zeta-Potential / mV ([3]; Figure 7B): 14.73 mV | Zeta-Potential ([3]; replicate 1): 14.5 | Zeta-Potential ([3]; replicate 2): 14.6 | Zeta-Potential ([3]; replicate 3): 15.1 | Count Rate / kcps [4]: 15062 kcps | Count Rate ([4]; mean of n = 3): 15061.73333 kcps | Count Rate ([4]; replicate 1): 20482.8 kcps | Count Rate ([4]; replicate 2): 10116.2 kcps | Count Rate ([4]; replicate 3): 14586.2 kcps | Log10 Count Rate [5]: 4.178

QCKIKQIINMWQ [EF-C (Münch Stock)]
viability 0.26 µM (TZM-bl cells; peptide 0.26 µM): 102 | viability 1.3 µM (TZM-bl cells; peptide 1.3 µM): 94.89 | viability 6.5 µM (TZM-bl cells; peptide 6.5 µM): 78.3

KCQCQCQ
Log10 Infection Rel EF-C ([1]; Figure 6C): 0.05949 | Inf. rel. EF-C [1]: 1.15 | Fibril / Fibril Formation [2]: 1 | Zeta-Potential / mV ([3]; Figure 6C): 11.83 mV | Count Rate / kcps [4]: 15236 kcps | Log10 Count Rate ([4]; log10 of derived count rate of scattered light, Figure 6C): 4.183 | Log10 Count Rate ([4]; logarithm of count rate in kcps): 4.183
